This note sets out measurements from PubChem BioAssay AID743168 (Sanford-Burnham Center for Chemical Genomics, 2013).

For this experiment, the target named is Diacylglycerol O-acyltransferase 1 (Homo sapiens) (UniProt O75907). Description: DGAT-1 acyltransferase activity inhibition, radiometric – biochemical, recombinant hDGAT-1, [14C]-TAG formation, radiolabel, counter-screen for TAG accumulation inhibitor project, dose response (AID 743168). The note with it: scintillation. (In general: The purpose of a counterscreen is to sort out artefacts and off-target activity.)
Diacylglycerol O-acyltransferase 1 (Homo sapiens), sequence (O75907 whole entry, looked up): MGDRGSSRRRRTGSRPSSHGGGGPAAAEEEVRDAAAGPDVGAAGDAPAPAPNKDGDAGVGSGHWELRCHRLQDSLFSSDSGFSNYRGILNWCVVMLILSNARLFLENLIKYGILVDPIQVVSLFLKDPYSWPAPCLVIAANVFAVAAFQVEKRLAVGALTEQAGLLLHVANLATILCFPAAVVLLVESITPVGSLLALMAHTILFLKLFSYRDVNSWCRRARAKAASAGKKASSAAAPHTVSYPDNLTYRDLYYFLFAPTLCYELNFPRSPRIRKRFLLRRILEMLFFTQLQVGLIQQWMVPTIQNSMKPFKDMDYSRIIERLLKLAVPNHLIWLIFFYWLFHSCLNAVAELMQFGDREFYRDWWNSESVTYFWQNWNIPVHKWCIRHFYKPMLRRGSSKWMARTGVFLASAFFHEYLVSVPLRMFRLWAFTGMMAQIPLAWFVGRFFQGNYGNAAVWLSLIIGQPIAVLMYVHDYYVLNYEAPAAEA

Broadly, the IC50 is the midpoint of a concentration-inhibition curve.

Activity calls are given as the source filed them.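 How the source made its calls: active means compounds whose IC50 here is at most triple their IC50 in the earlier fluorescent lipid screen; inactive means the rest.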

Take `CCCCN1Cc2cccc(C(=O)Nc3cccc(-c4nc5ccccc5[nH]4)c3)c2C1=O`: the IC50 was > 50 µM (inactive).
In the case of `O=C(Nc1cccc(-c2nc3ccccc3[nH]2)c1)c1cccc2c1C(=O)N(CC1CC1)C2`, the IC50 was > 50 µM (inactive).
For `O=C(Nc1cccc(-c2nc3ccccc3[nH]2)c1)c1cccc2c1C(=O)N(CCOc1ccccc1)C2` the value was > 50 µM (inactive); for `CCOCCN1Cc2cccc(C(=O)Nc3cccc(-c4nc5ccccc5[nH]4)c3)c2C1=O`, > 50 µM (inactive).
For `COCCN1Cc2cccc(C(=O)Nc3cccc(-c4nc5ccccc5[nH]4)c3)c2C1=O` the value was > 50 µM (inactive).
